# Assay results taken from ChEMBL document CHEMBL1201862, “PubChem BioAssay data set” (2004).
# Calls of active or inactive are those of the source.
# Tests used:
# [1] = system: Streptococcus sp. 'group A'; assay: growth inhibition of control SK(-) GAS strain, dose response, counter-screen for streptokinase expression inhibitor project, luminescence, kanamycin, BacTiterGlo, confirmation (AID 1900); assay type: functional, organism-based
# [2] = microbe, parasite or virus in culture; assay type: functional; conditions: Mycobacterium tuberculosis
# HEK293 = assay: inhibitors of LMP1-driven NF-kB reporter, dose response, cell-based, HEK293, luciferase, cherry-pick (AID 588343); assay type: functional; conditions: Homo sapiens
# Streptococcus = assay: Group A Streptococcus viability loss, dose response, counter-screen for streptokinase expression inhibitor project, luminescence, BacTiterGlo (AID 1915); assay type: functional, organism-based;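 also: potency for reduction of bacterial viability or growth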
# [3] = biological target: Glucose-6-phosphate 1-dehydrogenase (Homo sapiens, UniProt P11413); assay: human G6PD enzyme inhibitors, dose response, selectivity assay for P. falciparum G6PD inhibitor project, biochemical, fluorescence (AID 504792); assay type: functional
# Streptokinase A = biological target: T1, Streptokinase A (Streptococcus pyogenes serotype M1, UniProt P10520); assay: S. pyogenes streptokinase expression inhibitors, potency, dose response, plasminogen activation absorbance, OD405 (AID 1914); assay type: functional, Streptococcus pyogenes M1 GAS;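 also: secreted streptokinase activity via plasminogen activation per viability signal from cell pellet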
# T1 sequence (P10520 whole entry): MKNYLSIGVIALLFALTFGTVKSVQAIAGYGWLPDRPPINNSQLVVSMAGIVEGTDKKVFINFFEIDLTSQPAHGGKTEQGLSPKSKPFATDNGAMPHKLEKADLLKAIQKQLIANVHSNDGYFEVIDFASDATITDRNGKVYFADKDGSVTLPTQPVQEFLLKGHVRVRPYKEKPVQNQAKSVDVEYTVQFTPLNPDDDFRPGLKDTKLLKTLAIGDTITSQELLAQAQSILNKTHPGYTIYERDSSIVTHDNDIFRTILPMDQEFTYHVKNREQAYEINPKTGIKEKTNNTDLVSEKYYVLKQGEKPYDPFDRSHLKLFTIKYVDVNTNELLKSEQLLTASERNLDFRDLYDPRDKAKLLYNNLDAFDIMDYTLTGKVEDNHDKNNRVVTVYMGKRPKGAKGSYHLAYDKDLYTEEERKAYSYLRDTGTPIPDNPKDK
# [4] = biological target: Neurotensin receptor type 1 (Homo sapiens, UniProt P30989); assay type: functional;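 also: Image-based confirmatory dose-response assay measuring agonist activity at NTR1; NTR1-expressing U2OS osteosarcoma cells imaged for beta-arrestin GFP spot formation; agonist potency where compounds increase beta-arrestin recruitment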
# [5] = biological target: Voltage-gated inwardly rectifying potassium channel KCNH2 (Homo sapiens, UniProt Q12809); conditions: Potency;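 also: confirmatory quantitative high-throughput screen measuring inhibition of hERG channel activity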
# Vero [6] = assay: Vero cell cytotoxicity, cytotoxicity control for flavivirus capping enzyme inhibitors (AID 588742); assay type: functional; conditions: Chlorocebus sabaeus
# [7] = biological target: T2, Ubiquitin-conjugating enzyme E2 N (Homo sapiens, UniProt P61088); assay type: functional;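 also: Dose-response confirmation in a TR-FRET assay detecting UBC13-driven polyubiquitin chain formation, inhibition measured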
# T2 sequence (P61088 whole entry): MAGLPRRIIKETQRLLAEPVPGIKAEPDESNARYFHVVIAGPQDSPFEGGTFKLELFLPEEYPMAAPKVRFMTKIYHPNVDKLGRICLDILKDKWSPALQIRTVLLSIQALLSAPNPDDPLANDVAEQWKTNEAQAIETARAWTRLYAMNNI
# [8] = cytotoxicity in HEK-293T cells, dose response, cytotoxicity control for TCR NF-kB inhibitor project, luminescence, T-cell screen hits (AID 489026); assay type: functional, cell-based;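 also: cells exposed to compound about 14 hours before the viability readout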
# [9] = biological target: T3, Small ubiquitin-related modifier 1 (Homo sapiens, UniProt P63165); assay: inhibitors of SUMO1 peptide binding, dose response, biochemical, fluorescence polarization, uHTS hits (AID 624382); assay type: functional; conditions: read-out: IC50_Mean
# [10] = biological target: Heat shock protein HSP 90-alpha (Homo sapiens, UniProt P07900); assay type: functional, organism-based
# [11] = biological target: Eukaryotic translation initiation factor 4E (Mus musculus, UniProt P63073); assay: eIF4E–eIF4G protein interaction inhibitors, dose response, biochemical, TR-FRET (AID 855); assay type: functional;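 also: potency for disrupting eIF4E binding to eIF4GI seen as loss of FRET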
# [12] = biological target: T3, Small ubiquitin-related modifier 1; assay: inhibitors of SUMO1 partner interactions, dose response, biochemical, FRET (AID 624383); assay type: functional; conditions: read-out: IC50_Mean
# [13] = growth suppression of beta-catenin-knockout colon cells, dose response, cell-based, HCT116, human colon tumor (AID 1045); assay type: functional;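 also: HCT116 colon tumor cells with beta catenin knocked out; cells exposed to compound for 60 hours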
# [14] = growth suppression of PTEN-null colon cells, dose response, cell-based, HCT116 PTEN knockout (AID 1047); assay type: functional;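 also: HCT116 colon tumor cells with PTEN knocked out; cells exposed to compound for 60 hours before readout; potency for loss of cell viability measured by luminescence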
# [15] = biological target: T4, Apoptotic protease-activating factor 1 (Homo sapiens, UniProt O14727); assay type: functional
# T4 sequence (O14727 whole entry): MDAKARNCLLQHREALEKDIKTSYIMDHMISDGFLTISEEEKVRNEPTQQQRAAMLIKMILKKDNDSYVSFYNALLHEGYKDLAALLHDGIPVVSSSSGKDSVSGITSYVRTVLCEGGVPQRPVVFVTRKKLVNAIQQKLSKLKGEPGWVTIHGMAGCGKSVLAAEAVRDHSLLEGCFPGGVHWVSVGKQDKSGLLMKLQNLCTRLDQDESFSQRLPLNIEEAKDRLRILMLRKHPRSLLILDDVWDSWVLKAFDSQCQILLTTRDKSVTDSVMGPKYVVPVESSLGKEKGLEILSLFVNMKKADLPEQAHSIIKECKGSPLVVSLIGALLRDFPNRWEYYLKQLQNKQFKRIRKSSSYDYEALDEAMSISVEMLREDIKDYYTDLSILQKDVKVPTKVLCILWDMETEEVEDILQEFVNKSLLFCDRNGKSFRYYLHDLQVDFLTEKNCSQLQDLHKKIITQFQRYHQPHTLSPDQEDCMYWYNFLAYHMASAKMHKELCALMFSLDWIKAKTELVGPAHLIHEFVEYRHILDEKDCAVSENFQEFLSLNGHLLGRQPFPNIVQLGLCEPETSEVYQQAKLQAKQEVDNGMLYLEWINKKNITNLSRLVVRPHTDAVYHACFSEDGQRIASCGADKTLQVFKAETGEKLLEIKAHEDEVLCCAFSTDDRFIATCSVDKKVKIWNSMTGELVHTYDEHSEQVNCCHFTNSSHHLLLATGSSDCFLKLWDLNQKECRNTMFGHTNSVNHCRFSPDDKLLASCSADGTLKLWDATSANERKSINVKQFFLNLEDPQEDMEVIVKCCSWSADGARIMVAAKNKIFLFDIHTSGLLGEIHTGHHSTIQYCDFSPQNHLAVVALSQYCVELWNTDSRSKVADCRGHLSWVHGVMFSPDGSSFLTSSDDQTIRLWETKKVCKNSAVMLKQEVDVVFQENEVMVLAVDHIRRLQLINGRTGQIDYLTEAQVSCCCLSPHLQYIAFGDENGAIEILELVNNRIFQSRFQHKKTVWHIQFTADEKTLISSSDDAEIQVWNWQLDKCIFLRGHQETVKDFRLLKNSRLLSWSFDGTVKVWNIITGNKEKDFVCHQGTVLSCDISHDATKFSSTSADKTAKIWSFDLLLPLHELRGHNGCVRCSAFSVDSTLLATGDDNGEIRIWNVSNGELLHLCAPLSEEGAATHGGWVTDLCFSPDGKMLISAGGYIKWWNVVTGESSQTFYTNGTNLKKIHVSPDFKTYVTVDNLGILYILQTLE
# HeLa = assay: HeLa cell cytotoxicity, dose response, cytotoxicity control for MITF activator project, CellTiter-Glo luminescence, cherry-pick samples (AID 540259); assay type: functional, cell-based; conditions: Homo sapiens
# A-375 = assay: MITF: Counter assay: A375 proliferation Measured in Cell-Based System Using Plate Reader - 2084-03_Inhibitor_Dose_DryPowder_Activity. [Related pubchem assays (depositor defined):AID488944]; assay type: functional; conditions: Homo sapiens
# Melanocortin receptor 4 = Melanocortin receptor 4 (Homo sapiens, UniProt P32245); assay: MC4R antagonist potency on cAMP, dose response, cell-based, TR-FRET, biased antagonists (AID 602298); assay type: functional;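 also: antagonist potency against agonist-stimulated cAMP production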
# [16] = nonselective inhibitors of cellular cAMP signaling, dose response, counter-screen for MC4R biased antagonist project, cell-based, TR-FRET cAMP detection (AID 602305); assay type: functional;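 also: U2OS cells stimulated with forskolin near its EC80 as the cAMP inducer; potency is for inhibition of forskolin-stimulated cAMP signaling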
# [17] = biological target: T5, RNA-binding protein pos-1 (Caenorhabditis elegans, UniProt G5EF15); assay: inhibitors of POS-1/mex-3 RNA binding, dose response, biochemical, fluorescence polarization (AID 1964);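 also: purified POS-1 fused to maltose binding protein made in E. coli; potency of compounds blocking POS-1 binding to fluorescent RNA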
# T5 sequence (G5EF15 whole entry): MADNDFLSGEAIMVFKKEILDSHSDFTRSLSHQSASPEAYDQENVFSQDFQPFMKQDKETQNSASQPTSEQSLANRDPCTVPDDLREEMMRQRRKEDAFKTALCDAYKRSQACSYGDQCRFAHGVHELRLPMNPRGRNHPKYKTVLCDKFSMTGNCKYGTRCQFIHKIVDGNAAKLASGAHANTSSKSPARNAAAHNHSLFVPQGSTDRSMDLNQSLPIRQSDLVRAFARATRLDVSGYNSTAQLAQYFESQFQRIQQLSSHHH
# [18] = Shn3 3'UTR reporter inhibitors, dose response, cell-based, Clone20 osteoblasts, firefly luciferase, cherry-picked (AID 624132); assay type: functional;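 also: firefly luciferase luminescence from reporter carrying the Shn3 3'UTR in osteoblasts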
# Genome polyprotein = Genome polyprotein (dengue virus type 2, UniProt P29990); assay: Dengue-2 NS5 methyltransferase inhibitors, primary screen, biochemical, confirmation dose response (AID 588689); assay type: functional
# [19] = HepG2 cell cytotoxicity, dose response, cytotoxicity control for Shn3 inhibitor project, CellTiter-Glo, cherry-picked (AID 624134); assay type: functional, cell-based
# [20] = control 3'UTR Renilla luciferase suppression, dose response, counter-screen for Shn3 inhibitor project, cell-based, Clone20-Shn3RL, cherry-picked (AID 624133); assay type: functional
# [21] = biological target: T6, Zinc finger protein mex-5 (Caenorhabditis elegans, UniProt Q9XUB2); assay: MEX-5/TCR-2 RNA interaction inhibitors, dose response, biochemical, C. elegans, fluorescence polarization (AID 1960)
# T6 sequence (Q9XUB2 whole entry): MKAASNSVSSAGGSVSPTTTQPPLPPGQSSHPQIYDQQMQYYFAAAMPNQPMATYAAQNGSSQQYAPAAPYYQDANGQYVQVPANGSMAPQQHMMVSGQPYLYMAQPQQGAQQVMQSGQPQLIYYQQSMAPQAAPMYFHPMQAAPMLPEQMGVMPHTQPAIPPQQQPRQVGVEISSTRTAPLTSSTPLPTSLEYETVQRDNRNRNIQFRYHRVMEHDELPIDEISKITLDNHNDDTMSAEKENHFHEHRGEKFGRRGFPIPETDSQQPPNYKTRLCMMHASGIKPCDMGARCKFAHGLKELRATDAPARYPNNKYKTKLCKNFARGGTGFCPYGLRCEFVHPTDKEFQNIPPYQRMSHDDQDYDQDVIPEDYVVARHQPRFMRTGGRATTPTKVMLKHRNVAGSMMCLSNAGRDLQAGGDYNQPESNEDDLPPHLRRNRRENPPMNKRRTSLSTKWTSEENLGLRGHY
# Vero [22] = assay: cells; assay type: functional; conditions: Chlorocebus sabaeus
# [23] = biological target: Mitogen-activated protein kinase 13 (Homo sapiens, UniProt O15264); assay type: functional
# [24] = biological target: T7, Endoribonuclease toxin MazF (Escherichia coli K-12, UniProt P0AE70); assay: fluorescent RNA oligo signal without MazF, dose response, counter-screen for MazEF activator project, biochemical, fluorescence, single-stranded RNase substrate (AID 588502); assay type: functional
# T7 sequence (P0AE70 whole entry): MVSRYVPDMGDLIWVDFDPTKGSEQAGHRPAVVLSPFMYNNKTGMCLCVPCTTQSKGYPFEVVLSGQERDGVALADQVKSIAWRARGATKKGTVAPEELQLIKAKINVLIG
# [25] = biological target: T7, Endoribonuclease toxin MazF; assay: MazF toxin RNase activators, dose response, biochemical, fluorescence, single-stranded RNA substrate, uHTS hits (AID 588481); assay type: functional
# [26] = NIH-3T3 fibroblast cytotoxicity, dose response, cytotoxicity control for antifungal single agent project, cell-based, Alamar Blue, dry powder (AID 602188); assay type: functional
# Sequence of Voltage-gated inwardly rectifying potassium channel KCNH2 (Q12809 whole entry): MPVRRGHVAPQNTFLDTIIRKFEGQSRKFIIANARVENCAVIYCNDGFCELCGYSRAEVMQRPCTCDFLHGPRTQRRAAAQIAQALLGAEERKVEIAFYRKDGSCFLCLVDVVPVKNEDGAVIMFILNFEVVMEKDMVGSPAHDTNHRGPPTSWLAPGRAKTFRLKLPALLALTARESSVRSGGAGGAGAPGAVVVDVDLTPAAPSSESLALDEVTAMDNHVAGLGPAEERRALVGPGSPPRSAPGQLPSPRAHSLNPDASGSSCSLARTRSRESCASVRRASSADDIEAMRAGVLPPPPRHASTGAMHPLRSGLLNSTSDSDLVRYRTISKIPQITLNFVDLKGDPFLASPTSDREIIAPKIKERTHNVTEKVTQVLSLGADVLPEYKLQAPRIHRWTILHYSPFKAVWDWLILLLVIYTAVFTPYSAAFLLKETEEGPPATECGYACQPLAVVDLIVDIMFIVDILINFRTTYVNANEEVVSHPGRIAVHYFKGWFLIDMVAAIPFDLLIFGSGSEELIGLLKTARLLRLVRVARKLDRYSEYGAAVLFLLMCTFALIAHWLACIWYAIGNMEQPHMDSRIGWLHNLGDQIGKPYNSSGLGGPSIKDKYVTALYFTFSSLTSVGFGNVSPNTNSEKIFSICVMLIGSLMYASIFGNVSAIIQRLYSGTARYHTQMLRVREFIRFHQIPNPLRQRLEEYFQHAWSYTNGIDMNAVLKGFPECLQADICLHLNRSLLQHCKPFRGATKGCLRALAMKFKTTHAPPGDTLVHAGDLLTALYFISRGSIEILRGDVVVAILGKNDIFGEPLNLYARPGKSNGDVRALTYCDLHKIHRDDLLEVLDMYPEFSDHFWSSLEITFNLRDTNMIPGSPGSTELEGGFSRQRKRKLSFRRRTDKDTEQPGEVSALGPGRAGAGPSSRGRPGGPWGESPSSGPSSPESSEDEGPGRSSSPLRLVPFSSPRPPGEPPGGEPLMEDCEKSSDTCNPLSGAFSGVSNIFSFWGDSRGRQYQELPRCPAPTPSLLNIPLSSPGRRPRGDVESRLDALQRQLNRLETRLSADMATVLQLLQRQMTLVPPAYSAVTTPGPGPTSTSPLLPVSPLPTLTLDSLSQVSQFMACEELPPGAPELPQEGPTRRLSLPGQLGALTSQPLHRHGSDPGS
# Sequence of Glucose-6-phosphate 1-dehydrogenase (P11413 whole entry): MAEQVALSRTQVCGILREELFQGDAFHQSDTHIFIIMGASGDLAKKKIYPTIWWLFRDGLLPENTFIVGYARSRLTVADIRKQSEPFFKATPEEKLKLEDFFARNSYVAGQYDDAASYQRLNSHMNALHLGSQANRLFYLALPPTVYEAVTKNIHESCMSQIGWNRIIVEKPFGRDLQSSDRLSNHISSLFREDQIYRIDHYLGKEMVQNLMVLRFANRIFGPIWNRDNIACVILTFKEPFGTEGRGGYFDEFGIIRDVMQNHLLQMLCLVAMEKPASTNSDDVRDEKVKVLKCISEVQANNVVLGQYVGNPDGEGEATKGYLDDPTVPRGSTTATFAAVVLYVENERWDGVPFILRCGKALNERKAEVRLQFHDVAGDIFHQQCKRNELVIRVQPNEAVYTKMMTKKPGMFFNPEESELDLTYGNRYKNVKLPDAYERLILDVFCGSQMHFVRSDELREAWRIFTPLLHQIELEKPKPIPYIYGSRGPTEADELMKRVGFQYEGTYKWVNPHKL
# T3 sequence (P63165 whole entry): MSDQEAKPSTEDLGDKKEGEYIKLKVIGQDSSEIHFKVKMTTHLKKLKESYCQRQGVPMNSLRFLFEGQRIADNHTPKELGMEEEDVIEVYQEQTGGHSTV
# Sequence of Eukaryotic translation initiation factor 4E (P63073 whole entry): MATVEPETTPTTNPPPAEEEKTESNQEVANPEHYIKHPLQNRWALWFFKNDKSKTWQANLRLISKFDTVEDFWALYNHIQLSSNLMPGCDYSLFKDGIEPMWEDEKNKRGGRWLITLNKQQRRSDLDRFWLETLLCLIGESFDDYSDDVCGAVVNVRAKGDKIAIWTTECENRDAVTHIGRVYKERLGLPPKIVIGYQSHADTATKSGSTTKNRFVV
# Sequence of Melanocortin receptor 4 (P32245 whole entry): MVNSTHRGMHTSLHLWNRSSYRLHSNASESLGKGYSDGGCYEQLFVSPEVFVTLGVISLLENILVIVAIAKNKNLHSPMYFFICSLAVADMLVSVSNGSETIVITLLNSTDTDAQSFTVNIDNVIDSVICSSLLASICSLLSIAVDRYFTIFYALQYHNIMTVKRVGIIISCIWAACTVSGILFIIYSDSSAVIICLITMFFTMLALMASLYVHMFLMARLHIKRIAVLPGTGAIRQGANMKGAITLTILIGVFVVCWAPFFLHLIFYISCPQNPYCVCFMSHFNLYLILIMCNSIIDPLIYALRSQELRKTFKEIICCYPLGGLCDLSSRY
# Sequence of Mitogen-activated protein kinase 13 (O15264 whole entry): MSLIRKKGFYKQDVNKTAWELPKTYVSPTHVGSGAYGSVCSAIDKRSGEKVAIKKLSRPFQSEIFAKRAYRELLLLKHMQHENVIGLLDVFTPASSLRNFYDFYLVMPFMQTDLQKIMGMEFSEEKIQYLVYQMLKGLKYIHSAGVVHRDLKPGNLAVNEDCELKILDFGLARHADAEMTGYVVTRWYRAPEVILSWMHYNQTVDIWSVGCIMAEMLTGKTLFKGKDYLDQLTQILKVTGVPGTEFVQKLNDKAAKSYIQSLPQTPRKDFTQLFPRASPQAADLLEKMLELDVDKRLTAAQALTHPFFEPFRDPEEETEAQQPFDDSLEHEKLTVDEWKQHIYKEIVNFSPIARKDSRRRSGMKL
# Sequence of Neurotensin receptor type 1 (P30989 whole entry): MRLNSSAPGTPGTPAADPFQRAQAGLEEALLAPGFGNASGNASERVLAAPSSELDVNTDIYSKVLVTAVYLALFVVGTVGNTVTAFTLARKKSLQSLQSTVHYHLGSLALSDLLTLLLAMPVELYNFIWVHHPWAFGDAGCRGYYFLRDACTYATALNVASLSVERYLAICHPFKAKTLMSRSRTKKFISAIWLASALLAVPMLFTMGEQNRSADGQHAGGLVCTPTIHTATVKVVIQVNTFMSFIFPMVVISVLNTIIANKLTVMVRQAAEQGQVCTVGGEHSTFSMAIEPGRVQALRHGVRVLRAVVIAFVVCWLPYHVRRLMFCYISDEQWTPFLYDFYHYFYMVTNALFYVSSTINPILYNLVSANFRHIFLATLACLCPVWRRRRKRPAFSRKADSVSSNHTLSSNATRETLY
# Sequence of Genome polyprotein (P29990 2492-3391 limits assumed): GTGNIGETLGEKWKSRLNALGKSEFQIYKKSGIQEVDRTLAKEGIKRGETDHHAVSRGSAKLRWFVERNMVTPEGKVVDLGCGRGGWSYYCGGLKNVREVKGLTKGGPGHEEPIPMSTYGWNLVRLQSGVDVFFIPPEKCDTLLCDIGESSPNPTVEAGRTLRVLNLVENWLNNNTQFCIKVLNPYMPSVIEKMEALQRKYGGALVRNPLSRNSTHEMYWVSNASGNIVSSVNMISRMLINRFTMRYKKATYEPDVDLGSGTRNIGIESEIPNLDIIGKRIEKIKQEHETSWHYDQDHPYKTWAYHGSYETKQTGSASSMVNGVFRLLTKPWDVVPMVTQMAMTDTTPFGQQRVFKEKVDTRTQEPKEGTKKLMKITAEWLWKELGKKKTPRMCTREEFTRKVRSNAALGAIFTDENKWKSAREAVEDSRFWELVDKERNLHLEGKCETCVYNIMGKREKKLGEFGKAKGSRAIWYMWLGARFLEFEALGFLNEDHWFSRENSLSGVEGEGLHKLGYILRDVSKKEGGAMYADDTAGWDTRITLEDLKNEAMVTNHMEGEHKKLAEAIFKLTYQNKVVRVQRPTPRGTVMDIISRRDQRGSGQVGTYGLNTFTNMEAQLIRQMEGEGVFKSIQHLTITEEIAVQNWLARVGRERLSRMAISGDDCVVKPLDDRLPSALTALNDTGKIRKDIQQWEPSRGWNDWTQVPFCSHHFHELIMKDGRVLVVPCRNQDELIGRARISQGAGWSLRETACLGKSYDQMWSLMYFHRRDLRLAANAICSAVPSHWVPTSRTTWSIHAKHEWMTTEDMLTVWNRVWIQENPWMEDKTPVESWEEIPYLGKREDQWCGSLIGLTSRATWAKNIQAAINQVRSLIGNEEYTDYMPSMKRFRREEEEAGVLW
compound,measurement,setting,value
Cc1ccc(C(=O)/C=C/C(=O)c2ccc(C)cc2)cc1,EC50,[1],3.45 µM (active)
same,CC50,[2],31.4 µM (active)
same,AC50,HEK293,8.72 µM (active)
same,EC50,Streptococcus,9.38 µM (active)
same,IC50,[3],> 80 µM (inactive)
same,EC50,Streptokinase A,0.653 µM (active)
same,EC50,[4],14.9 µM (active)
CCC(Cl)CC(Cl)C(Cl)C(Cl)C(Cl)C(C)Cl (configuration not stated),AC50,[5],11.2 µM (inconclusive)
Cc1nc2cc(NCc3nc4ccccc4n3Cc3ccccc3)ccc2n1C,CC50,Vero [6],> 40 µM (active)
CCCCCCCCCCCCCCCC[n+]1ccc(C(N)=O)cc1,IC50,[7],> 20 µM (inactive)
same,IC50,[8],74.4 µM (inactive)
same,IC50,[9],> 66.6 µM (inactive)
same,AC50,[10],8.77 µM (active)
same,IC50,[11],25.1 µM (active)
same,IC50,[12],13.8 µM (active)
same,EC50,[13],6.46 µM (active)
same,EC50,[14],6.2 µM (active)
same,IC50,[15],25.7 µM (active)
COc1ccc(-c2cc(=O)c3cc(C)ccc3[nH]2)cc1,AC50,HeLa,79.9 µM (active)
COc1cc(NCc2ccccc2O)c2ncccc2c1,IC50,[3],> 80 µM (inactive)
CCN(Cc1ccccc1)c1ccccc1,AC50,[5],35.5 µM (inconclusive)
CC(C)=NOc1cc(NC(=O)CCl)cc([N+](=O)[O-])c1,AC50,A-375,15.3 µM (active)
CCN(C(=O)COC(=O)CSc1ccc(C(N)=O)cc1[N+](=O)[O-])C1CCCCC1,IC50,Melanocortin receptor 4,> 64.6 µM (inactive)
same,IC50,[16],> 64.6 µM (inactive)
CCOc1cc(/C=C2/C(=O)ON=C2C)ccc1OCc1ccccc1F,EC50,[17],53.5 µM (active)
same,CC50,Vero [6],> 40 µM (active)
same,AC50,[18],6.95 µM (active)
same,IC50,Genome polyprotein,41.5 µM (active)
same,AC50,[19],69.3 µM (active)
same,AC50,[20],28.2 µM (active)
same,EC50,[21],37.3 µM (inconclusive)
same,CC50,Vero [22],> 25 µM (active)
CCN(CC)C(=O)Oc1ccc2c(=O)c(-c3ccc(OC)cc3)coc2c1,AC50,HeLa,287 µM (active)
NC1C2CN(c3nc4c(cc3F)c(=O)c(C(=O)O)cn4-c3ccc(F)cc3F)CC12 (configuration not stated),Ki,[23],> 7.94 µM (inactive)
CN(CC(=O)Nc1ccccc1Cl)CC(=O)c1c(N)n(Cc2ccccc2)c(=O)n(C)c1=O,EC50,[24],> 99 µM (inactive)
same,EC50,[25],> 99 µM (inactive)
Oc1c(C(c2ccccc2Cl)N2CCCCC2)ccc2cccnc12 (configuration not stated),AC50,[26],5.69 µM (active)
